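96-well plates; 48 h exposure; 5 concentrations. Endpoints by linear interpolation between flanking doses. Not reached: highest tested concentration assigned. Definition used: TGI = concentration required for complete inhibition of growth.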
Columns and labels:
Test in all cases: NCI-60 cell line screen, 48 h
[1] = tested on: PC-3 prostate
[2] = tested on: K-562 leukemia
[3] = tested on: MDA-MB-231 breast
[4] = tested on: SK-MEL-28 melanoma
[5] = tested on: SNB-75 CNS
[6] = tested on: NCI-H226 lung
[7] = tested on: A549 NSCLC
[8] = tested on: MDA-MB-435
[9] = tested on: OVCAR-4 ovarian
[10] = tested on: UACC-62 melanoma
[11] = tested on: NCI-H460 lung
[12] = tested on: T-47D breast
[13] = tested on: COLO 205 colon
[14] = tested on: HCC-2998 colon
[15] = tested on: U251 CNS
[16] = tested on: EKVX NSCLC
[17] = tested on: SW-620 colon
[18] = tested on: NCI/ADR-RES ovarian
[19] = tested on: SF-268 CNS
[20] = tested on: KM12 colon
[21] = tested on: A498 renal
[22] = tested on: OVCAR-3 ovarian
[23] = tested on: HOP-62 NSCLC
[24] = tested on: MCF7 breast
[25] = tested on: CAKI-1 renal
[26] = tested on: MOLT-4 leukemia
[27] = tested on: SN12C renal
[28] = tested on: CCRF-CEM leukemia
[29] = tested on: NCI-H522 lung
[30] = tested on: SNB-19 CNS
[31] = tested on: NCI-H23 lung
[32] = tested on: SK-OV-3 ovarian
[33] = tested on: SF-539 CNS
[34] = tested on: 786-0 renal
[35] = tested on: OVCAR-8 ovarian
[36] = tested on: MDA-N
[37] = tested on: UACC-257 melanoma
[38] = tested on: MALME-3M melanoma
[39] = tested on: TK-10 renal
[40] = tested on: SF-295 CNS
[41] = tested on: ACHN renal
[42] = tested on: HCT-116 colon
[43] = tested on: HT29 colon
[44] = tested on: HOP-92 NSCLC
[45] = tested on: M14 melanoma
[46] = tested on: OVCAR-5 ovarian
[47] = tested on: DU-145 prostate
[48] = tested on: SR leukemia
[49] = tested on: SK-MEL-5 melanoma
[50] = tested on: UO-31 renal
[51] = tested on: RXF 393 renal
[52] = tested on: HCT-15 colon
[53] = tested on: BT-549 breast
[54] = tested on: SK-MEL-2 melanoma
[55] = tested on: LOX IMVI melanoma
[56] = tested on: HS 578T breast
[57] = tested on: HL-60(TB) leukemia
[58] = tested on: RPMI-8226 leukemia
[59] = tested on: IGROV1 ovarian

O=C1CS(=O)(=O)C(c2cccc(Oc3ccccc3)c2)N1c1ccccc1 (centres undefined)
TGI [1]: 66.8 µM
TGI [2]: 60.1 µM
TGI [3]: 62.6 µM
TGI [4]: 85.4 µM
TGI [5]: > 100 µM
TGI [6]: 45.6 µM
TGI [7]: > 100 µM
TGI [8]: 68.2 µM
TGI [9]: > 100 µM
TGI [10]: 27 µM
TGI [11]: 38.4 µM
TGI [12]: > 100 µM
TGI [13]: 37.2 µM
TGI [14]: 35 µM
TGI [15]: 33.3 µM
TGI [16]: 54.2 µM
TGI [17]: > 100 µM
TGI [18]: 83 µM
TGI [19]: 75.8 µM
TGI [20]: > 100 µM
TGI [21]: 41.8 µM
TGI [22]: 55.1 µM
TGI [23]: > 100 µM
TGI [24]: 33.3 µM
TGI [25]: 58.3 µM
TGI [26]: 65.7 µM
TGI [27]: 39.7 µM
TGI [28]: > 100 µM
TGI [29]: 47.9 µM
TGI [30]: > 100 µM
TGI [31]: 94.6 µM
TGI [32]: > 100 µM
TGI [33]: 39.6 µM
TGI [34]: 37.8 µM
TGI [35]: > 100 µM
TGI [36]: 44.2 µM
TGI [37]: 46 µM
TGI [38]: 42.6 µM
TGI [39]: 60 µM
TGI [40]: > 100 µM
TGI [41]: 64.8 µM
TGI [42]: 30.8 µM
TGI [43]: > 100 µM
TGI [44]: 32.8 µM
TGI [45]: 38.7 µM
TGI [46]: > 100 µM
TGI [47]: > 100 µM
TGI [48]: 57 µM
TGI [49]: 29.3 µM
TGI [50]: 80.4 µM
TGI [51]: 38.7 µM
TGI [52]: 66 µM
TGI [53]: 49.1 µM
TGI [54]: 31.5 µM
TGI [55]: 32.7 µM
TGI [56]: 69.9 µM
TGI [57]: > 100 µM

COC1=C2C=[N+](C)C3C(=C2C=CC1OC)Cc1cc2c(cc13)OCO2 (centres undefined)
TGI [1]: 39.3 µM
TGI [2]: 42.5 µM
TGI [3]: 27.8 µM
TGI [4]: 47.4 µM
TGI [5]: 28 µM
TGI [6]: 38.4 µM
TGI [7]: 32.4 µM
TGI [8]: 33.3 µM
TGI [9]: 22.3 µM
TGI [10]: 21.6 µM
TGI [12]: 18.8 µM
TGI [13]: 18.4 µM
TGI [15]: 30.7 µM
TGI [16]: 35.6 µM
TGI [17]: > 100 µM
TGI [18]: > 100 µM
TGI [19]: 20.3 µM
TGI [20]: 10.4 µM
TGI [21]: > 100 µM
TGI [22]: 13.7 µM
TGI [58]: 27.1 µM
TGI [23]: 26.8 µM
TGI [24]: 21.5 µM
TGI [25]: 29.3 µM
TGI [26]: 17.8 µM
TGI [27]: 18 µM
TGI [28]: > 100 µM
TGI [29]: 21.4 µM
TGI [30]: 17.2 µM
TGI [31]: 30.6 µM
TGI [32]: 28.3 µM
TGI [33]: 24 µM
TGI [34]: 29.6 µM
TGI [35]: > 100 µM
TGI [36]: 23.6 µM
TGI [37]: 26.2 µM
TGI [38]: 18.8 µM
TGI [39]: 32.4 µM
TGI [40]: 29 µM
TGI [42]: 31.5 µM
TGI [43]: 26.3 µM
TGI [44]: 49.3 µM
TGI [45]: 30.1 µM
TGI [46]: 32.1 µM
TGI [47]: 27.5 µM
TGI [48]: 42 µM
TGI [49]: 23.2 µM
TGI [50]: 26.6 µM
TGI [52]: 35.3 µM
TGI [53]: 28.1 µM
TGI [54]: 29.6 µM
TGI [55]: 39.6 µM
TGI [56]: 51.2 µM
TGI [57]: 15.7 µM

COC12C=CC(C=C1C#N)CC2 (centres undefined) (tested in a mixture with another compound)
TGI [1]: > 100 µM
TGI [2]: > 100 µM
TGI [3]: > 100 µM
TGI [4]: > 100 µM
TGI [5]: > 100 µM
TGI [6]: > 100 µM
TGI [7]: > 100 µM
TGI [8]: > 100 µM
TGI [9]: > 100 µM
TGI [10]: > 100 µM
TGI [11]: > 100 µM
TGI [12]: > 100 µM
TGI [13]: > 100 µM
TGI [14]: > 100 µM
TGI [15]: > 100 µM
TGI [16]: > 100 µM
TGI [17]: > 100 µM
TGI [18]: > 100 µM
TGI [19]: > 100 µM
TGI [20]: > 100 µM
TGI [21]: > 100 µM
TGI [22]: > 100 µM
TGI [58]: > 100 µM
TGI [23]: > 100 µM
TGI [24]: > 100 µM
TGI [25]: > 100 µM
TGI [26]: > 100 µM
TGI [27]: > 100 µM
TGI [28]: > 100 µM
TGI [29]: > 100 µM
TGI [30]: > 100 µM
TGI [31]: > 100 µM
TGI [32]: > 100 µM
TGI [33]: > 100 µM
TGI [34]: > 100 µM
TGI [35]: > 100 µM
TGI [36]: > 100 µM
TGI [59]: > 100 µM
TGI [37]: > 100 µM
TGI [38]: > 100 µM
TGI [39]: > 100 µM
TGI [40]: > 100 µM
TGI [41]: > 100 µM
TGI [42]: > 100 µM
TGI [43]: > 100 µM
TGI [44]: > 100 µM
TGI [45]: > 100 µM
TGI [46]: > 100 µM
TGI [47]: > 100 µM
TGI [48]: > 100 µM
TGI [49]: > 100 µM
TGI [50]: > 100 µM
TGI [51]: > 100 µM
TGI [52]: > 100 µM
TGI [53]: > 100 µM
TGI [54]: > 100 µM
TGI [56]: > 100 µM
TGI [57]: > 100 µM

— PubChem BioAssay (NCI)
